In ChEMBL document CHEMBL4265966 (Bioorg Med Chem Lett, 2018):
Active and inactive are the calls of the source. The calls are words filed in the database; no cut-off is given here.

Assays:
[1] = molecular target: T1, Sodium-dependent serotonin transporter (Homo sapiens, UniProt P31645); assay: biochemical; format: cell-based, HEK293
Target sequence in this assay (P31645 whole entry): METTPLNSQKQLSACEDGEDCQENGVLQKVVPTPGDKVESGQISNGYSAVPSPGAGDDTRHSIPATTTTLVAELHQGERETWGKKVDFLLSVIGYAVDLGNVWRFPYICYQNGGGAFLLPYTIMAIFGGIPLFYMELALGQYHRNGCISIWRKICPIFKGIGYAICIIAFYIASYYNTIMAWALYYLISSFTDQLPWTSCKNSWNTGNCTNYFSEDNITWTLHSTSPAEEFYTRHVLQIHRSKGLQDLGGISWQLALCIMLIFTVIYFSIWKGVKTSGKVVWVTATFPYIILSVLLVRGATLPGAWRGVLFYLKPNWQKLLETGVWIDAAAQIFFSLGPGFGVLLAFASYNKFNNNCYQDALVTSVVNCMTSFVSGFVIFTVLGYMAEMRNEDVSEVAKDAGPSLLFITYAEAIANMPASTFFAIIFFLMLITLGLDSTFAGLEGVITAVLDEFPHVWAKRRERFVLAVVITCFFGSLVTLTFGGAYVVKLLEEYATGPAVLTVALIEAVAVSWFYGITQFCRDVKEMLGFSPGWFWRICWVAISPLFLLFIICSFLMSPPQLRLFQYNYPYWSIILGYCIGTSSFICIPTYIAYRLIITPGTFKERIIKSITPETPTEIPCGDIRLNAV
Description: Displacement of [125I]-RTI-55 from human SERT expressed in HEK293 cell membranes after 1 hr by gamma counting method

[2] = molecular target: T1, Sodium-dependent serotonin transporter; assay: Binding affinity to human SERT expressed in HEK293 cells at 1 uM preincubated for 1 hr followed by UV light irradiation for 20 mins in presence of (S)-citalopram by IRDye 800 CW azide based tandem photoaffinity labeling-biorthogonal conjugation assay; format: cell-based
Target sequence in this assay (P31645 whole entry, looked up): as the sequence (P31645 whole entry) above

[3] = molecular target: T1, Sodium-dependent serotonin transporter; assay: Potency index, ratio of (S)-citalopram Ki to compound Ki for displacement of [125I]-RTI-55 from human SERT expressed in HEK293 cell membranes
Target sequence in this assay (P31645 whole entry, looked up): as the sequence (P31645 whole entry) above

[4] = molecular target: T1, Sodium-dependent serotonin transporter; assay: Binding affinity to human SERT expressed in HEK293 cells at 1 uM after 1 hr by IRDye 800 CW azide based tandem photoaffinity labeling-biorthogonal conjugation assay; format: cell-based
Target sequence in this assay (P31645 whole entry, looked up): as the sequence (P31645 whole entry) above

[5] = molecular target: T1, Sodium-dependent serotonin transporter; assay: Binding affinity to human SERT expressed in HEK293 cells at 1 uM preincubated for 1 hr followed by UV light irradiation for 20 mins by IRDye 800 CW azide based tandem photoaffinity labeling-biorthogonal conjugation assay; format: cell-based
Target sequence in this assay (P31645 whole entry, looked up): as the sequence (P31645 whole entry) above

**Q.** How did the Ki [1] turn out when `C#CCOc1ccc(C(=O)c2ccc(CN(C)CCC[C@@]3(c4ccc(F)cc4)OCc4cc(C#N)ccc43)cc2)cc1` was run?
**A.** 487 nM

**Q.** How did the Ki [1] turn out when `CN(C)CCC[C@@]1(c2ccc(F)cc2)OCc2cc(CNC(=O)c3cc(CN=[N+]=[N-])cc(N=[N+]=[N-])c3)ccc21` was run?
**A.** 10.7 nM

**Q.** What does the source list for `C#CCOc1ccc(C(=O)c2ccc(C(=O)NCc3ccc4c(c3)CO[C@@]4(CCCN(C)C)c3ccc(F)cc3)cc2)cc1`?
**A.** Activity [2]: inactive; Ratio Ki [3]: 11; Ki [1]: 0.16 nM; Activity [4]: inactive; Activity [5]: Active
